This note sets out measurements from ChEMBL document CHEMBL1201862, “PubChem BioAssay data set” (2004).

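In this assay, cells in 96-well plates receive the compound at five concentrations for 48 hours. Endpoints are linearly interpolated between the surrounding concentrations. Here, GI50 denotes the concentration required for 50% inhibition of growth.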 Active and inactive are the calls of the source. Cut-off read from the data, not from the text of the source: active = GI50 up to about 1.1 µM and inactive = higher.

Test systems include HCC 2998; NCI-H226; COLO 205; SF-295; MDA-MB-231; MDA-N; NCI-H23; SN12C; SK-OV-3; CCRF-CEM; BT-549; K562; Malme-3M; SNB-75; 786-0; SNB-19; OVCAR-5; SR; SF-539.
Test in all cases: NCI-60 cell line screen, 48 h

With `O=[N+]([O-])c1ccc(/N=N\c2c(O)ccc3ccccc23)c([N+](=O)[O-])c1`, the GI50 is > 100 µM (inactive) in the assay on HCC 2998; > 100 µM (inactive) in the assay with NCI-H226; > 100 µM (inactive) in the assay on COLO 205; > 100 µM (inactive) in the assay on SF-295; > 48.6 µM (inactive) in the assay on MDA-MB-231; > 100 µM (inactive) in the assay with MDA-N. Moreover, the GI50 in the assay on NCI-H23 was > 100 µM (inactive); in the assay with SN12C, > 100 µM (inactive); with SK-OV-3, > 100 µM (inactive); with CCRF-CEM, 29.4 µM (inactive); in the assay on BT-549, > 100 µM (inactive); with K562, 19.8 µM (inactive). The GI50 with Malme-3M, in the assay on SNB-75, in the assay with 786-0, in the assay on SNB-19 and in the assay on OVCAR-5 was > 100 µM (inactive) each time.
For the compound `O=C(O)/C=C/C(=O)O` [FUMARIC ACID], the GI50 with SR, with HCC 2998, with NCI-H226, in the assay on COLO 205, in the assay with SF-295 and with MDA-MB-231 was > 100 µM (inactive) each time. Also, the GI50 in the assay on SF-539, in the assay on MDA-N, in the assay on NCI-H23, in the assay on SN12C, in the assay with CCRF-CEM and with K562 was > 100 µM (inactive) each time. Besides, the GI50 in the assay with Malme-3M, with SNB-75, in the assay with 786-0, in the assay with SNB-19 and in the assay on OVCAR-5 was > 100 µM (inactive) each time.
As for `Cc1cccc(Nc2cn(CCOc3ccccc3)c(=O)[nH]c2=O)c1`, the GI50 is > 100 µM (inactive) in the assay with SR; 24.8 µM (inactive) in the assay with HCC 2998; 18.8 µM (inactive) with COLO 205; 49.9 µM (inactive) in the assay on SF-295; 32.4 µM (inactive) in the assay on MDA-N; 31 µM (inactive) in the assay with NCI-H23. For the same compound, the GI50 with SN12C is 24.6 µM (inactive); in the assay on CCRF-CEM it was 52.6 µM (inactive); in the assay with K562 it was 58.6 µM (inactive); with 786-0 it was 34.2 µM (inactive); in the assay with SNB-19 it was 97.1 µM (inactive); in the assay with OVCAR-5 it was 19.4 µM (inactive).
In the case of `c1ccc2c(c1)sc1c3cnccc3ccc21`, the GI50 with SR is 11.6 µM (inactive); with HCC 2998 it was > 100 µM (inactive); in the assay with NCI-H226, 24.2 µM (inactive); in the assay with COLO 205, 90.8 µM (inactive); in the assay with SF-295, 85.9 µM (inactive); in the assay with MDA-MB-231, > 100 µM (inactive). Moreover, the GI50 in the assay with SF-539 is 82.2 µM (inactive); in the assay on NCI-H23 it was > 100 µM (inactive); with SN12C, > 100 µM (inactive); in the assay on SK-OV-3, > 100 µM (inactive); in the assay with BT-549, > 100 µM (inactive); in the assay with K562, > 100 µM (inactive). The GI50 is 66.8 µM (inactive) in the assay with Malme-3M; > 100 µM (inactive) with SNB-75; > 100 µM (inactive) in the assay with 786-0; > 100 µM (inactive) with SNB-19; > 100 µM (inactive) in the assay with OVCAR-5.
As for `CCc1cccc(CC)c1Nc1nc2c(s1)C(=O)c1ccccc1C2=O`, the GI50 is 23.3 µM (inactive) in the assay with SR; 18.7 µM (inactive) in the assay on HCC 2998; 22.9 µM (inactive) with COLO 205; 13.7 µM (inactive) with SF-295; 16.5 µM (inactive) in the assay with MDA-MB-231; 24.2 µM (inactive) with SF-539. For the same compound, the GI50 with MDA-N is 17.5 µM (inactive); in the assay on NCI-H23, 15.3 µM (inactive); in the assay on SN12C, 15.8 µM (inactive); in the assay with SK-OV-3 it was 27.3 µM (inactive); in the assay on CCRF-CEM it was 38.9 µM (inactive); in the assay with K562, 28 µM (inactive). The GI50 with Malme-3M is 16 µM (inactive); with SNB-75, 11.8 µM (inactive); in the assay with 786-0, 20.9 µM (inactive); in the assay on SNB-19, 17 µM (inactive); in the assay with OVCAR-5 it was 20.3 µM (inactive).
As for `COc1ccc(COCC[C@H](C)OC2OC(CO)C(O)C(O)C2O)cc1` (some centres not stated), the GI50 in the assay with SR, in the assay with HCC 2998, with NCI-H226, in the assay with COLO 205, in the assay with SF-295 and in the assay with MDA-MB-231 was > 100 µM (inactive) throughout. For the same compound, the GI50 in the assay with SF-539, with NCI-H23, in the assay on SN12C, in the assay with SK-OV-3, in the assay on CCRF-CEM and in the assay with BT-549 was > 100 µM (inactive) in each case. Further, the GI50 with K562, with SNB-75, in the assay with 786-0, in the assay with SNB-19 and in the assay with OVCAR-5 was > 100 µM (inactive) each time.
As for `Nc1nc2c(ncn2C2OC(CO)C(O)C2N)c(=O)[nH]1` (configuration not stated), the GI50 in the assay with HCC 2998, in the assay on COLO 205, in the assay with SF-295, in the assay with SF-539, in the assay on NCI-H23 and in the assay on SN12C was > 100 µM (inactive) in each case. Besides, the GI50 was > 100 µM (inactive) in the assay with SK-OV-3; 40.1 µM (inactive) with CCRF-CEM; 86.9 µM (inactive) in the assay on K562; > 100 µM (inactive) in the assay on Malme-3M; > 100 µM (inactive) with SNB-75; 48.2 µM (inactive) in the assay with 786-0. The GI50 in the assay with SNB-19 and with OVCAR-5 was > 100 µM (inactive) each time.
For the compound `CC(C)C1SCc2nc3ccccc3n21` (configuration not stated), the GI50 in the assay with HCC 2998 was 78 µM (inactive); in the assay on NCI-H226, < 0.01 µM (active); in the assay on COLO 205, 12.7 µM (inactive); with SF-295, 30.5 µM (inactive); in the assay on MDA-MB-231, 24.2 µM (inactive); in the assay with SF-539 it was 38.2 µM (inactive). In addition, the GI50 in the assay on MDA-N was 38.9 µM (inactive); with NCI-H23, 25.9 µM (inactive); with SN12C it was 21.8 µM (inactive); with SK-OV-3 it was > 100 µM (inactive); with CCRF-CEM, 34.8 µM (inactive); with K562, 34.5 µM (inactive). For the same compound, the GI50 in the assay on Malme-3M is 37.2 µM (inactive); in the assay on 786-0 it was 84.9 µM (inactive); in the assay on SNB-19, 51.8 µM (inactive); in the assay on OVCAR-5 it was 77.3 µM (inactive).
On to `CC(C)[C@H](NC(=O)OCc1ccccc1)C(=O)N[C@H](/C=C/C(=O)OC(C)(C)C)CO`, for which the GI50 in the assay on SR is > 100 µM (inactive); in the assay with HCC 2998, > 100 µM (inactive); in the assay on NCI-H226, > 100 µM (inactive); in the assay on COLO 205, 80.4 µM (inactive); in the assay with SF-295, > 100 µM (inactive); in the assay on MDA-MB-231, > 100 µM (inactive). Besides, the GI50 was > 100 µM (inactive) in the assay on SF-539; > 100 µM (inactive) in the assay on MDA-N; > 100 µM (inactive) in the assay with NCI-H23; > 100 µM (inactive) with SN12C; > 100 µM (inactive) in the assay with SK-OV-3; 28.1 µM (inactive) in the assay with CCRF-CEM. In addition, the GI50 in the assay with Malme-3M was > 100 µM (inactive); in the assay with SNB-75 it was 0.12 µM (active); in the assay with 786-0, 65.6 µM (inactive); with SNB-19 it was > 100 µM (inactive); with OVCAR-5 it was > 100 µM (inactive).
Turning to `CC(=O)OCC1OC(n2c(C)c(C(C)=O)c(-c3ccc(Cl)cc3)c(C#N)c2=S)C(OC(C)=O)C(OC(C)=O)C1OC(C)=O` (configuration not stated), the GI50 with SR, with HCC 2998, with NCI-H226, in the assay on COLO 205, in the assay with SF-295 and in the assay on MDA-MB-231 was > 100 µM (inactive) each time. Moreover, the GI50 with SF-539, with MDA-N, in the assay on NCI-H23, in the assay with SN12C, in the assay on SK-OV-3 and in the assay on CCRF-CEM was > 100 µM (inactive) throughout. For the same compound, the GI50 in the assay on K562, in the assay on Malme-3M, in the assay with SNB-75, in the assay on 786-0 and in the assay on SNB-19 was > 100 µM (inactive) in each case.
For the compound `COc1ccc(/C=C/C(=O)CC(=O)/C=C/c2ccc(OC)cc2)cc1`, the GI50 with HCC 2998 was > 100 µM (inactive); with NCI-H226, > 100 µM (inactive); in the assay with COLO 205 it was 69.5 µM (inactive); with SF-295, 27.9 µM (inactive); in the assay with MDA-MB-231, 51.4 µM (inactive); with SF-539 it was 30.3 µM (inactive). The GI50 was 20.7 µM (inactive) in the assay with MDA-N; 8.53 µM (inactive) in the assay on NCI-H23; 61.5 µM (inactive) with SN12C; > 100 µM (inactive) with SK-OV-3; 20.9 µM (inactive) with CCRF-CEM; 32.7 µM (inactive) in the assay with K562. In addition, the GI50 with Malme-3M was 34.5 µM (inactive); in the assay on SNB-75, > 100 µM (inactive); in the assay on 786-0, 30.8 µM (inactive); in the assay with SNB-19, 89.9 µM (inactive); in the assay on OVCAR-5 it was 46.2 µM (inactive).
In the case of `Cc1ccc(S(=O)(=O)n2c3ccc(Br)cc3c3nc4ccccc4nc32)cc1`, the GI50 was > 100 µM (inactive) with HCC 2998; 0.183 µM (active) in the assay with NCI-H226; > 100 µM (inactive) in the assay on COLO 205; > 100 µM (inactive) with SF-295; > 100 µM (inactive) in the assay on MDA-MB-231; > 100 µM (inactive) with MDA-N. Further, the GI50 in the assay with NCI-H23, with SN12C, with CCRF-CEM, in the assay with K562, with SNB-75 and in the assay on 786-0 was > 100 µM (inactive) throughout. Besides, the GI50 with SNB-19 and with OVCAR-5 was > 100 µM (inactive) in each case.
